Source: paper PMC11923649, “Novel C-2 Aromatic Heterocycle-Substituted Triterpenoids Inhibit Hedgehog Signaling in GLI1 Overexpression Cancer Cells” (ACS Omega, 2025)

Key:
[1] = test system: Gli1 protein in A549 cells; experiment: Western blot of Gli1 in A549 cells, 24 h; type: cell-based, human; conditions: A549, 24 h, immunoblot
Method: In order to verify that compounds 11a and 11b inhibit the proliferation of A549 and DU-145 through Hh inhibition, we monitored the expression of Hh target genes in these cell lines (Figure 2). […] The decreased protein expression of Gli1 targets Cyclin D1, N-Myc, and Bcl-2 strongly indicates inhibition of its transcriptional activity, and their downregulation correlates with the data obtained by the U-87 MG-Gli-FLuc reporter assay. Importantly, these proteins are involved in cell cycle progression, proliferation, and survival. N-Myc amplification or deregulation of transcription, stability, and degradation is associated with many malignancies,[34] and the observed downregulation induced by 11a and 11b may reduce its oncogenic effect.
Figure 2 Effect of compounds 11a and 11b on the protein expression of the Gli1 transcription factor and its transcriptional targets in A549 (A) and DU145 (B) cells following 24 h of incubation. […]
Cells were washed with PBS and lysed on ice in 200 μL of RIPA (Radioimmunoprecipitation Assay) buffer for 30 min. Then, cell lysates were clarified by centrifugation (15000 rpm, 20 min, 4 °C), and the protein concentration in the collected supernatants was determined using a BCA method (Bicinchoninic Acid test). […] Luminescence signal detection was performed by using an Odyssey FC instrument (LI-COR Biosciences).

[2] = test system: Gli-mediated transcription (U-87 MG-Gli-FLuc reporter); experiment: U-87 MG-Gli-FLuc reporter assay; type: cell-based, human; conditions: 24 h, 12.5–0.78 μmol/L; compared with GANT-61 at equimolar concentration
Method: A possible direct inhibition of the reporter (Fluc) and luminescence itself, which could lead to false positive results, was also ruled out in a cellular as well as a noncellular model (data not shown).
Figure 1 Effect of compounds 11a, 11b, and positive control GANT-61 on Gli1 activation and cell viability measured using the U-87 MG-Gli-FLuc reporter assay. Data are expressed as percentages of control (100%) and represent the mean of three independent experiments with the standard deviation. To distinguish specific inhibition of Gli activation from a nonspecific cellular response, an MTS assay was performed simultaneously under the same conditions in 96-well transparent plates. Statistical analysis of Gli1 activity was performed using one-sample Student’s t-test (mu = 100): *, p < 0.05; **, p < 0.01. The same analysis was used to assess cytotoxicity by MTS assay: #, p < 0.05; ##, p < 0.01.
The U-87 MG-Gli-FLuc reporter cell line was developed from the human glioblastoma line U-87 MG obtained from ATCC and cultured in EMEM medium supplemented with 10% FBS, 1 mmol/L sodium pyruvate, and a 1 mmol/L nonessential amino acid mixture. […] Panels were placed on a shaker to achieve complete cell lysis, and luminescence was measured after 3 min using an EnVision plate reader.

Structure (SMILES) | Endogenous Gli1 protein level [1] | Gli transcriptional activity [2]
C=C(C)[C@@H]1CC[C@]2(C(=O)O)CC[C@]3(C)C(CCC4[C@@]5(C)C=C(c6ccco6)C(=O)C(C)(C)C5CC[C@]43C)C12 (stereo partly shown) [Compound 11a, 2-(Furan-2-yl)-3-oxolupa-1,20(29)-dien-28-oic acid] | inhibit the endogenous Gli1 protein level in a dose-dependent manner | inhibited Gli transcriptional activity in a dose-response manner
C=C(C)[C@@H]1CC[C@]2(C(=O)O)CC[C@]3(C)C(CCC4[C@@]5(C)C=C(c6ccoc6)C(=O)C(C)(C)C5CC[C@]43C)C12 (stereo partly shown) [Compound 11b, 2-(Furan-3-yl)-3-oxolupa-1,20(29)-dien-28-oic acid] | inhibit the endogenous Gli1 protein level in a dose-dependent manner | inhibited Gli transcriptional activity in a dose-response manner
